Patent US4547496A, “Antiulcer [1] benzepino[3,4-b]pyridine and compositions” (Kyowa Hakko Kogyo Co., Ltd., priority 1983, dated 1985)

Columns and labels:
[1] = test system: male dd-strain mice; assay: Test for acute toxicity (minimum lethal dose, 7-day mortality); assay type: in vivo; conditions: mortality observed for 7 days; for Acute MLD ip: intraperitoneal
Method: Groups of 5 male dd-strain mice weighing 19 to 21 g were used. The present compounds were administered either orally (0.3 mg/g) or intraperitoneally (0.1 mg/g).
The MLD (minimum lethal dose) was determined by observing the mortality for 7 days after the administration.

[2] = test system: Male Donryu-strain rats; assay: Test for antiulcer activity (restraint and water immersion stress ulcer, lesion index of glandular stomach); assay type: in vivo; conditions: Rattus norvegicus, water immersion at 23±1° C. for 7 hours, read-out: Ulcer-inhibition Rate; for inhibition in vivo at 30 mg/kg: po: 30 mg/kg; for inhibition in vivo at 100 mg/kg: po: 100 mg/kg
Method: Test for antiulcer activity
Male Donryu-strain rats weighing 190 to 210 g were starved for 17 hours prior to the test.
Immediately, after an oral administration of the present compounds (30 mg/kg or 100 mg/kg), the rats were immobilized in the stress cage devised by Takagi et al. [Jap. J. Pharmacol., 18, 9 (1968)]. The cage was then immersed vertically in a water bath at 23±1° C. for 7 hours to the height of xiphoid process.
Each rat was then killed with carbon dioxide gas and its stomach was removed. The lengths of the lesions developed on the glandular stomach were summed to give a lesion index for each rat.
Four or five rats were used for each group. The test compounds were dissolved in saline or dissolved or suspended in saline with a suitable amount of polyethylene glycol-400 added or not added. The ulcer-inhibitionrate of each compound was calculated from the following formula by comparing the lesion index of the test group with that of the control group [administered with only the solvent (saline with polyethylene glycol-400 added or not added)]. [formula]

| SMILES | Acute MLD ip [1] | Acute MLD po [1] | inhibition in vivo at 30 mg/kg [2] | inhibition in vivo at 100 mg/kg [2] |
| --- | --- | --- | --- | --- |
| CCN(CC)CCNC1c2ccccc2OCc2ncccc21 (stereo not drawn) [Compound 1, 5-[2-(Diethylamino)ethyl]amino-5,11-dihydro[1]benzoxepino[3,4-b]pyridine] | > 100 mg/kg | > 300 mg/kg | 85% | – |
| CN(C)CCNC1c2ccccc2OCc2ncccc21 (stereo not drawn) [Compound 5, 5-[2-(Dimethylamino)ethyl]amino-5,11-dihydro[1]benzoxepino[3,4-b]pyridine] | > 100 mg/kg | > 300 mg/kg | 78% | – |
| CCN(CC)CCCNC1c2ccccc2OCc2ncccc21 (stereo not drawn) [Compound 7, 5-[3-(Diethylamino)propyl]amino-5,11-dihydro[1]benzoxepino[3,4-b]pyridine] | > 100 mg/kg | > 300 mg/kg | 55% | – |
| c1ccc2c(c1)OCc1ncccc1C2NCCN1CCCC1 (stereo not drawn) [Compound 13, 5-[2-(1-Pyrrolidinyl)ethyl]amino-5,11-dihydro[1]benzoxepino[3,4-b]pyridine] | > 100 mg/kg | > 300 mg/kg | 72% | – |
| c1ccc2c(c1)OCc1ncccc1C2NCCN1CCOCC1 (stereo not drawn) [Compound 15, 5-[2-(Morpholino)ethyl]amino-5,11-dihydro[1]benzoxepino[3,4-b]pyridine] | > 100 mg/kg | > 300 mg/kg | 73% | – |
| CN1CCN(C2c3ccccc3OCc3ncccc32)CC1 (stereo not drawn) [Compound 20, 5-[1-(4-Methyl)piperazinyl]-5,11-dihydro[1]benzoxepino[3,4-b]pyridine] | > 100 mg/kg | > 300 mg/kg | 67% | – |
| CC(C)N(CCNC1c2ccccc2OCc2ncccc21)C(C)C (stereo not drawn) [Compound 24, 5-[2-(Diisopropylamino)ethyl]amino-5,11-dihydro[1]benzoxepino[3,4-b]pyridine] | > 100 mg/kg | > 300 mg/kg | 88% | – |
| CC(C)N(CC(=O)NC1c2ccccc2OCc2ncccc21)C(C)C (stereo not drawn) [Compound 27, 5,11-Dihydro-5-[(N,N--diisopropylamino)acetyl]amino[1]benzoxepino[3,4-b]pyridine] | > 100 mg/kg | > 300 mg/kg | – | 79% |
| CCN(CC)CC(=O)NC1c2ccccc2OCc2ncccc21 (stereo not drawn) [Compound 28, 5-[(N,N--diethylamino)acetyl]amino-5,11-dihydro[1]benzoxepino[3,4-b]pyridine] | > 100 mg/kg | > 300 mg/kg | – | 98% |
| CN1CCN(CC(=O)NC2c3ccccc3OCc3ncccc32)CC1 (stereo not drawn) [Compound 29, 5,11-Dihydro-5-[(4-methyl-1-piperazinyl)acetyl]amino[1]benzoxepino[3,4-b]pyridine] | > 100 mg/kg | > 300 mg/kg | – | 64% |
| CNC(=O)N(C)C1c2ccccc2OCc2ncccc21 (stereo not drawn) [Compound 31, 1-(5,11-Dihydro[1]benzoxepino[3,4-b]pyridin-5-yl)1,3-dimethylurea] | > 100 mg/kg | > 300 mg/kg | – | 93% |
| CCNC(=O)N(CC)C1c2ccccc2OCc2ncccc21 (stereo not drawn) [Compound 36, 1-(5,11-Dihydro[1]benzoxepino[3,4-b]pyridin-5-yl)1,3-diethylurea] | > 100 mg/kg | > 300 mg/kg | – | 81% |
